Results: patent EP1297826A1, “Nasal pharmaceutical compositions containing a NK-2 antagonist” (Menarini Ricerche S.p.A., priority 2001, dated 2003)
Like-named read-outs stand apart in the source and are kept apart here.

Assays:
[1] = rat, in vivo; cited from earlier work
[2] = human, in vivo
[3] = in vivo
[4] = rat, in vivo
[5] = rat, in vivo; cited from earlier work; remark: listed apart in the source
visceral hyperalgesia = conditions: animal models of IBS; cited from earlier work
[6] = dog, in vivo

In the case of “cyclo ( [Asn(β--D-2-deoxy-2-acetamido-Glc)-Asp-Trp-Phe-Dap-Leu]cyclo(2β--5β-)) [nepadutant]”, the absoption [1] is given as over 80%, the oral bioavailability [2] is given as 1% and the Maximum bioavailability [3] is given as at most 2%. The Maximum bioavailability [4] was at most 20%, the oral bioavailability [5] was 1% and the visceral hyperalgesia (visceral hyperalgesia) was “corrects visceral hyperalgesia”. For the same substance, the Maximum bioavailability [6] was at most 2%.
